Test results as given in patent US20230126711A1, “ENTERIC NITRERGIC NEURONS AND METHODS OF USING THE SAME” (The Regents of the University of California, priority 2020, published 2023).

Tested on: NOS1
Assay: Percentage of NO neurons in treated cultures by flow cytometry for NOS1
Format: cell-based, human
Details: flow cytometry for NOS1, compared to no treatment
Procedure: NO neurons quantified using flow cytometry for NOS1.
Option 1 (for 3-D Culture): • 30. On day 15, ENC spheroids are gathered in the center of the wells using a swirling motion and neural crest medium is removed using a P1000 micropipette in slow circular motion, avoiding the free-floating spheroids. • 31. Spheroids are fed with the same volume of ENC medium containing PP121 (1-5 μM), GDNF (10 ng/ml), ascorbic acid (100 μM), N2 supplement (10 μl/ml), B27 supplement (20 μl/ml), glutagro (10 μl/ml), and MEM NEAAs (10 μl/ml) in neurobasal medium. • 32. Cells are fed with ENC every other day until day 30-40, after which, feeding frequency can be reduced to once or twice a week but with a higher volume of medium.
Option 2 (for 2-D Culture): • 30. On day 15, ENC spheroids are gathered in the center of the wells using a swirling motion and neural crest medium is removed using a P1000 micropipette in slow circular motion, avoiding the free-floating spheroids. • 31. After washing the spheroids with PBS, accutase is added and plates are incubated for 30 minutes at 37° C. to dissociate the spheroids. • 32. Then, remaining spheroids are broken by pipetting ENC medium. • 33. ENC contains PP121 (1-5 μM), GDNF (10 ng/ml), ascorbic acid (100 μM), N2 supplement (10 μl/ml), B27 supplement (20 μl/ml), glutagro (10 μl/ml), and MEM NEAAs (10 μl/ml) in neurobasal medium. • 34. […]

PDGF
percentage of NO neurons (NOS1 induction): reduced the percentage of NO neurons

Nc1ncnc2c1c(-c1cnc3[nH]ccc3c1)nn2C1CCCC1 [PP121]
percentage of NO neurons (NOS1 induction): enhances NOS1 induction efficiency
